From US20260091082A1, “CYCLIC PEPTIDE DERIVATIVE COMPOSITION FOR TREATING OR PREVENTING EYE DISEASE” (DKS Co. Ltd., priority 2022, published 2026)
Values joined by “and” are separate entries in the source; they are usually repeats but may differ in a detail not shown here. Equal values may be shown once.

Test system: anterior chamber aqueous humor pressure load rat model
Test: Retinal thickness (IPL, INL, ONL) in retinal damage model induced by anterior chamber aqueous humor pressure load
Type: in vivo, Rat; Slc: SD
Conditions: for Thickness of INL (μm) / Thickness of IPL (μm) / Thickness of ONL (μm): 10 mg/mL intravenous (1 mL/kg once) about 30 minutes before ischemic load (test group 4), 14 days after model creation, mean ± S.E., 10 animals
Procedure: • Name: Compound 9 • Source: Synthesized in the above Examples • Used amount: 0.4 mL (50 mg/mL solution) • Storage conditions: Freezing, light shielding
Method for preparing test substance (1 mg/mL): A high concentration solution prepared at 50 mg/mL was diluted 50 times with a medium to prepare a 1 mg/mL administration solution.
• Name: MK-801 • Distributor: SIGMA-ALDRICH • Use amount: 0.0501 g • Storage condition: refrigerated (2° C. to 8° C.)
Method for preparing positive control substance (10 mg/mL): 0.0501 g was weighed out and made up to a total volume of 5 mL with a control substance (physiological saline).
• Species and strains: Rat; Slc: SD • Number of animals on arrival and sex: 50 males • Age in weeks at arrival: 6 weeks old • Body weight range at arrival: 147.2 to 170.0 g • Source: Japan SLC, Inc.
Grouping was performed two days before the first creation of the retinal damage model induced by an anterior chamber aqueous humor pressure load. Using the daily body weight as an index, stratified random allocation was performed using SAS (Ver. 9.3, SAS Institute Japan Ltd.) and EXSUS (Ver. 8.0, CAC Croit Corporation) so that an average value of the body weights of each group was approximately uniform.
• Administration route: Eyedrop administration, intravenous administration • Administration method (eyedrop): Eyedrop administration was performed on a treated eye (right eye) of a rat using a micropipette 4 times a day (at intervals of 1.5 hours or more). • Administration method (intravenous): The amount of administration solution, calculated from the body weight on the day of administration, was administered from the tail vein using a syringe and an injection needle about 30 minutes before ischemic load. • Time of administration: Administration was performed according to the following schedule.
1. 10 mg/kg xylazine hydrochloride was intramuscularly administered on the model creation day (day 0). A rat was placed in an anesthesia box and subjected to general anesthesia with isoflurane (5%, oxygen:nitrous oxide=1:3). When anesthesia was effective, the rat was taken out of the anesthesia box, an inhalation anesthetic mask was worn, and anesthesia was maintained with isoflurane (1% to 5%, oxygen nitrous oxide=1:3).
2. The body temperature was maintained at 37° C. with a warming mat, and a mydrin P ophthalmic solution was instilled in the right eye (treated eye) of the rat to dilate the pupil, then the cravit ophthalmic solution 1.5% (Santen Pharmaceutical Co., Ltd.) was instilled.
3. A bottle of an IV bag containing physiological saline was previously suspended so that a water surface was 155 cm (100 mmHg or more) higher than the eye of the rat. The IV bag was connected to a pediatric infusion set (Terumo Corporation), a 27 G injection needle thereof was inserted into and fixed to the anterior chamber while slightly dripping the liquid from a needle tip. The model was created in the light phase (6:00 to 18:00) in consideration of the diurnal variation of the intraocular pressure.
4. After the needle was inserted into the anterior chamber, pressure (100 mmHg or more) was loaded and maintained in the anterior chamber by associating the reflux system.
5. After an ischemic load for 45 minutes, the injection needle and the like were removed, the inhalation anesthetic mask was removed, and the rat was sufficiently woken up under a warming mat, and then returned to the cage.
6. For 2 days after surgery, 10 mg/kg xylazine hydrochloride was intramuscularly administered as an analgesic for the purpose of alleviating the pain after the treatment.
1. Fourteen days after model creation, general anesthesia was performed with isoflurane (5%, oxygen:nitrous oxide=1:3), euthanasia was then performed by exsanguination, a suture was placed as a marker at the 12 o'clock position of the ocular conjunctiva, and eyeball enucleation was performed.
2. […]

[1] = 10 mg/mL intravenous, right eye, 600 μm from optic disk, mean per animal
[2] = 10 mg/mL intravenous, right eye, 900 μm from optic disk, individual measurements per animal
[3] = 10 mg/mL intravenous, right eye, 900 μm from optic disk, mean per animal
[4] = MK-801, 10 mg/mL intravenous, right eye, individual animals 401-410
[5] = test group 4 (positive control, intravenous)

C[C@]12N[C@H](Cc3ccccc31)c1ccccc12 [MK-801, reference compound]
Thickness of IPL (μm), Distance from Optic Disk 600 μm (10 mg/mL intravenous, right eye, 600 μm from optic disk, individual measurements per animal): 51.638 μm and 52.865 μm and 43.668 μm and 44.847 μm and 43.645 μm and 46.040 μm and 48.131 μm and 48.555 μm and 40.323 μm and 42.059 μm and 40.708 μm and 38.245 μm and 23.016 μm and 30.373 μm and 47.349 μm and 49.055 μm and 51.482 μm and 47.356 μm and 46.081 μm and 48.016 μm and 49.876 μm and 42.369 μm and 44.364 μm and 47.408 μm and 44.018 μm and 42.681 μm and 28.572 μm and 45.620 μm and 44.033 μm and 47.914 μm | Thickness of INL (μm), Distance from Optic Disk 600 μm, Mean [1]: 37.378 μm and 28.006 μm and 30.469 μm and 44.484 μm and 31.392 μm and 28.027 μm and 18.807 μm and 31.969 μm and 25.534 μm and 35.604 μm | Thickness of IPL (μm), Distance from Optic Disk 600 μm, Mean [1]: 51.460 μm and 43.628 μm and 44.683 μm and 48.031 μm and 42.133 μm and 40.545 μm and 27.320 μm and 47.341 μm and 47.624 μm and 47.337 μm | Thickness of INL (μm), Distance from Optic Disk 900 μm [2]: 38.448 μm and 33.242 μm and 40.306 μm and 28.655 μm and 32.584 μm and 30.110 μm and 27.670 μm and 26.653 μm and 27.205 μm and 46.278 μm and 47.196 μm and 49.419 μm and 26.256 μm and 28.272 μm and 28.572 μm and 28.638 μm and 29.653 μm and 28.909 μm and 18.887 μm and 19.638 μm and 20.068 μm and 28.079 μm and 29.083 μm and 31.101 μm and 27.776 μm and 27.037 μm and 27.422 μm and 33.221 μm and 42.252 μm and 40.931 μm | Thickness of IPL (μm), Distance from Optic Disk 900 μm [2]: 53.305 μm and 54.992 μm and 50.505 μm and 49.780 μm and 48.950 μm and 49.327 μm and 45.307 μm and 46.968 μm and 47.454 μm and 59.185 μm and 57.507 μm and 59.952 μm and 47.370 μm and 46.144 μm and 43.062 μm and 44.289 μm and 45.534 μm and 44.647 μm and 26.506 μm and 30.220 μm and 35.348 μm and 47.148 μm and 37.774 μm and 39.021 μm and 47.795 μm and 46.694 μm and 44.145 μm and 52.722 μm and 49.687 μm and 46.942 μm | Thickness of INL (μm), Distance from Optic Disk 900 μm, Mean [3]: 37.332 μm and 30.450 μm and 27.176 μm and 47.631 μm and 27.700 μm and 29.067 μm and 19.531 μm and 29.421 μm and 27.412 μm and 38.801 μm | Thickness of IPL (μm), Distance from Optic Disk 900 μm, Mean [3]: 52.934 μm and 49.352 μm and 46.576 μm and 58.881 μm and 45.525 μm and 44.823 μm and 30.691 μm and 41.314 μm and 46.211 μm and 49.784 μm | Thickness of INL (μm) (300 μm from optic disk): 28.96±1.66 μm | Thickness of IPL (μm) (300 μm from optic disk): 38.05±1.38 μm | Thickness of ONL (μm) (300 μm from optic disk): 42.08±1.66 μm | Thickness of INL (μm) (600 μm from optic disk): 31.17±2.21 μm | Thickness of IPL (μm) (600 μm from optic disk): 44.01±2.11 μm | Thickness of ONL (μm) (600 μm from optic disk): 45.28±1.75 μm | Thickness of INL (μm) (900 μm from optic disk): 31.45±2.48 μm | Thickness of IPL (μm) (900 μm from optic disk): 46.61±2.34 μm | Thickness of ONL (μm) (900 μm from optic disk): 45.02±1.52 μm | Thickness of ONL, distance from optic disk 300 μm (single measurement) [4]: 49.987 μm and 47.894 μm and 44.120 μm and 44.371 μm and 45.163 μm and 41.953 μm (2×) and 41.468 μm and 43.326 μm and 44.787 μm and 50.806 μm and 50.609 μm and 36.032 μm and 35.996 μm and 37.658 μm and 33.339 μm and 36.442 μm and 39.921 μm and 32.751 μm and 35.889 μm and 35.090 μm and 45.922 μm and 43.490 μm and 44.532 μm and 39.787 μm and 38.794 μm and 36.469 μm and 48.975 μm and 47.935 μm and 47.053 μm | Thickness of ONL, distance from optic disk 600 μm (single measurement) [4]: 54.862 μm and 55.200 μm and 39.132 μm and 42.030 μm and 46.694 μm and 48.910 μm and 53.036 μm and 51.036 μm and 37.502 μm and 37.761 μm and 41.216 μm and 41.515 μm and 39.682 μm and 37.237 μm and 46.859 μm and 44.945 μm and 44.217 μm and 44.145 μm and 50.162 μm and 48.259 μm and 48.902 μm and 41.131 μm and 49.194 μm and 53.714 μm and 39.721 μm and 42.784 μm and 37.125 μm and 46.818 μm and 44.498 μm and 50.125 μm | Thickness of ONL, distance from optic disk 900 μm (single measurement) [4]: 50.646 μm and 51.429 μm and 55.123 μm and 43.100 μm and 44.611 μm and 41.813 μm and 43.865 μm and 45.150 μm and 42.936 μm and 50.620 μm and 52.065 μm and 51.575 μm and 38.927 μm and 44.018 μm and 42.314 μm and 45.648 μm and 44.179 μm and 43.513 μm and 35.404 μm and 34.065 μm and 37.439 μm and 46.755 μm and 42.208 μm and 44.217 μm and 44.685 μm and 43.759 μm and 46.364 μm and 47.690 μm and 47.148 μm and 49.406 μm | Inner nuclear layer (INL) thickness compared with the control group, in words [5]: no obvious change was observed | Outer nuclear layer (ONL) thickness compared with the control group, in words [5]: statistically significant differences were observed at measurement sites between 600 to 900 μm from the optic disk | Inner plexiform layer (IPL) thickness compared with the control group, in words (test group 4 (positive control, intravenous), 300 to 900 μm from the optic disk): statistically significant suppression of retinal damage was shown at all measurement sites
